# Measured values: PubChem BioAssay (NCI)
#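 Results reflect a 48-hour exposure of cells in 96-well plates to compound at five concentrations. GI50 is the concentration that inhibits growth by half. TGI: total growth inhibition.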 *1 amine or outer side, *2 acyl side, *3 side chain or, on linkers, in order; H or OH if unused. Where a SMILES comes first, the peptide text is derived from it. Bridges are numbered along the chain shown (N, C = ends). Roman numbers before positions name the chains, in order. [ ]: non-standard residue; d: D form. Actinocin(9to1) = Cc1c2oc3c(C)ccc(C(=O)[*:1])c3nc-2c(C(=O)[*:2])c(N)c1=O; NMeF = CN[CH](Cc1ccccc1)C(=O)O; Sar = CNCC(=O)O
# Legend:
# Assay in all cases: NCI tumour cell line growth inhibition, 48 h
# [1] = tested on: SNB-78 CNS
# [2] = tested on: DMS 114 small cell lung
# [3] = tested on: DMS 273 small cell lung
# [4] = tested on: DLD-1 colon
# [5] = tested on: M19-MEL melanoma
# [6] = tested on: XF 498 CNS
# [7] = tested on: HOP-18 NSCLC
# [8] = tested on: MDA-N
# [9] = tested on: SN12K1 renal
# [10] = tested on: RXF-631 renal
# [11] = tested on: P388/ADR leukemia
SMILES,TGI [1] [µM],TGI [2] [µM],TGI [3] [µM],TGI [4] [µM],TGI [5] [µM],TGI [6] [µM],TGI [7] [µM],TGI [8] [µM],also measured
N#CCC(=O)N1CCCCCCC1,> 100,91.7,> 100,> 100,–,–,–,–,–
O=c1oc2ccccc2c(O)c1C(C/C(CCN1CCCC1)=N\Nc1ccccc1)c1ccccc1 (centres undefined),> 100,–,–,> 100,> 100,> 100,> 100,–,–
Cc1coc2c1C(OC(=O)C(C)C)C1(C)C(C)CCC(O)C1C2=O (centres undefined),–,–,–,–,–,–,–,> 100,–
O=C(O)/C(=C\c1ccncc1)c1cccc2ccccc12,–,–,–,–,–,–,–,> 100,–
NNC(=O)C(=O)N/N=C(\CCC(=O)Nc1ccc(Cl)cc1)Cc1nc2ccccc2s1,> 100,54.8,67.8,–,36.9,–,38.7,–,–
O=NN(CCCl)C(=O)NC1CCC(CC2CCC(NC(=O)N(CCCl)N=O)CC2)CC1 (centres undefined),> 87.3,> 55.1,85.5,> 62.4,> 100,19.8,> 56.2,–,TGI [9]: 34.2 µM; TGI [10]: > 100 µM; TGI [11]: 5.03 µM
O=C(O)Cn1cc([N+](=O)[O-])c(=O)c2ccccc21,–,–,–,–,–,–,–,> 100,–
O=C(O)C(Oc1nc(=S)[nH]c(=S)[nH]1)(c1ccc(Cl)cc1)c1ccc(Cl)cc1,–,–,–,–,–,–,–,> 100,–
COC(=O)c1nn(C(=N)c2ccc(Cl)cc2)c2c1CCC2,> 100,> 100,> 100,> 100,> 100,> 100,–,–,–
CN1C/C(=C\C=C\c2ccccc2)C(=O)/C(=C/C=C/c2ccccc2)C1,> 100,> 100,> 100,> 100,> 100,> 100,–,–,TGI [10]: > 100 µM
C/C(=N\NC(=S)N(C)C)c1ccccn1,–,–,–,–,–,–,–,–,GI50 [8]: 0.178 µM
CCN(CC)CC(=N)N(CC)c1ccccc1,> 100,> 100,–,> 100,> 100,> 100,> 100,–,–
COc1ccc(N2C(=O)C3c4[nH]c5ccccc5c4C4CCCCC4C3C2=O)cc1 (centres undefined),12.1,> 100,23.9,> 100,> 100,–,67.7,–,–
[N-]=[N+]=C(C(=O)N1CCCC1=O)S(=O)(=O)c1ccccc1,–,–,–,–,–,–,–,> 100,–
CC(C)=CC(=O)Cc1nc2ccc([N+](=O)[O-])cc2[nH]c1=O,> 100,> 100,> 100,> 100,> 100,> 100,–,–,–
CCN(CC)C(=S)[S][Bi]([S]C(=S)N(CC)CC)[S]C(=S)N(CC)CC,2.13,0.0444,0.221,0.208,0.314,–,0.375,2.04,GI50 [5]: 0.162 µM; GI50 [8]: 0.728 µM; GI50 [1]: 0.598 µM; GI50 [2]: 0.0193 µM; GI50 [3]: 0.056 µM; GI50 [4]: 0.0404 µM; GI50 [7]: 0.202 µM
O=C(/C=C\c1cccc2ccccc12)c1cccc2ccccc12,–,–,24.7,15.8,33.6,–,–,–,GI50 [3]: 4.03 µM; GI50 [10]: 10.5 µM; TGI [10]: 26.4 µM; GI50 [4]: 3.43 µM
C[C@]12CCC(=O)C=C1CC[C@@H]1C2CC[C@]2(C)c3nn(-c4ccccc4)nc3CC12 (some centres undefined),> 100,> 100,> 100,> 100,> 100,> 100,–,–,–
C/C=C(/C)C(=O)O[C@H]1[C@H](O)CC(c2ccc3c(c2O)C(O)=C2C(=O)C4(OC)C(O)=C(C(N)=O)C(=O)[C@H](CC(=O)c5ccccc5O)C4CC2[C@@]3(C)OC)O[C@@H]1C (some centres undefined),–,0.0292,–,3.85,0.768,–,3.07,2.09,–
O=C1c2ccccc2C(=O)c2[nH]c(Cc3ccc(F)cc3)nc21,–,–,35.5,8.21,34.2,31.8,–,–,TGI [10]: 44.8 µM
O=[N+]([O-])c1cccc2nccc(NCCCO)c12,–,–,–,–,–,–,–,22.2,–
C=CC1=C(C)C2=NC1=CC1=NC(=C(CC)/C1=C\O)C=C1N=C3C(=C1C)C(=O)[C@H](C(=O)OC)C3=C1NC(=C2)[C@@H](C)[C@@H]1CCC(=O)O,–,–,–,–,–,–,–,> 100,–

SMILES,TGI [1] [µM],TGI [2] [µM],TGI [3] [µM],TGI [4] [µM],TGI [5] [µM],TGI [6] [µM],TGI [7] [µM],TGI [8] [µM],also measured
N.N.O=P([O-])([O-])C1(P(=O)([O-])[O-])CCCCCN1.[Pt+2],> 100,–,> 100,> 100,–,–,> 100,–,GI50 [1]: 78.4 µM; GI50 [3]: > 100 µM; GI50 [4]: > 100 µM; GI50 [7]: > 100 µM
CN(C)C(=O)Oc1c(-c2ccccc2)c(=O)n2c3ccccc3n3c(=O)n(C)c(=O)c1c23,> 100,> 100,> 100,> 100,> 100,> 100,> 100,–,TGI [10]: > 100 µM
CC(C)=CCCC(C)C1=C(O)C(=O)C(C)=CC1=O (centres undefined),–,–,–,–,–,–,–,21.7,–
O=S1Nc2c(Cl)cc(Cl)c(Cl)c2S1 (centres undefined),> 100,> 100,> 100,> 100,> 100,–,> 100,–,–
CCN(CC)CCNC(=O)c1cccc2nc3ccccc3nc12,71.2,22.3,> 100,> 100,–,–,> 63.4,–,–
O=C1NCCS(=O)(=O)N2CCC[C@@H]12,> 100,> 100,–,> 100,> 100,–,> 100,–,TGI [10]: > 100 µM
Oc1ccc(Cc2cc(Cl)cc(Cl)c2O)cc1Cl,–,–,–,–,–,–,–,22.4,–
C/C=N\N1C(=O)c2ccccc2C1=O,> 100,> 100,> 100,> 100,> 100,> 100,> 100,–,TGI [10]: > 100 µM
CCCCCCCCCCCCCCCCCC(=O)Nc1ccn(C2OC(CO)C(O)C2O)c(=O)n1 (centres undefined),> 100,–,> 100,> 100,> 100,–,> 100,> 100,–
O=C(NC(=O)c1ccccc1[N+](=O)[O-])Nc1ccc(Oc2ncc(Cl)cn2)c(C(F)(F)F)c1,> 100,–,0.669,> 100,> 100,1.62,> 100,–,–
Cc1c([N+](=O)[O-])oc2ccc3ccccc3c12,–,–,–,–,–,–,–,> 100,–
Cc1ccc([C@]2(C)CC[C@H](C)/C2=C\Br)c(O)c1,–,–,–,–,–,–,–,10.3,GI50 [8]: 2.74 µM
Cc1cccc2c(O)cc(=O)oc12,> 100,> 100,–,> 100,> 100,> 100,> 100,–,–
CC1(C)CC(N(C(=O)/C=C/c2ccc([N+](=O)[O-])o2)C2CCCCC2)CC(C)(C)N1,26.5,6.87,18,3.38,16.9,23.5,37.4,–,TGI [10]: 23.4 µM
"Cc1c2oc3c(C)ccc(C(=O)NC4C(=O)NC(C(C)C)C(=O)N5CCCC5C(=O)N(C)CC(=O)N(C)C(Cc5ccccc5)C(=O)OC4C)c3nc-2c(C(=O)NC2C(=O)NC(C(C)C)C(=O)N3CCCC3C(=O)N(C)CC(=O)N(C)C(Cc3ccccc3)C(=O)OC2C)c(N)c1=O (centres undefined) (I: TVP[Sar][NMeF] / II: TVP[Sar][NMeF]; ester I:1-I:C, II:1-II:C; linker I:N-II:N via Actinocin(9to1); configuration not given here)",–,–,–,–,–,–,–,0.0564,GI50 [8]: 0.00491 µM
O=C(CC/C(CC(=O)c1ccc(Br)cc1)=N\O)Nc1ccc(Cl)c(Cl)c1,> 100,> 100,> 100,> 100,> 100,–,> 100,–,–
Cn1c(=O)c2/c(n(C)c1=O)=N\C=c1\c(=O)n(C)c(=O)n(C)\c1=N\C=2,> 100,> 100,–,> 100,> 100,–,> 100,–,TGI [10]: > 100 µM
O=C(O)c1cc2ccccc2c2c1C(=O)c1ccccc1-2,–,–,–,–,–,–,–,> 100,–
CC(=O)[CH-]C(C)=O.CC(=O)[CH-]C(C)=O.CC[O-].CC[O-].[Ti+4],–,> 100,–,> 100,–,–,–,–,GI50 [2]: > 100 µM; GI50 [4]: > 100 µM
CC(=O)/C(=C/N1CCNC1=S)C(=O)Nc1ccccc1C,–,–,–,–,–,–,–,> 100,–
OCCN1CCN(CC/C=C2/c3ccccc3Sc3ccc(Cl)cc32)CC1,30.2,30.5,18.9,26.4,4.09,25.4,24,–,–
